# Data: patent US11714094B2, “Composition comprising prostacyclin andor analogues thereof for treatment of acute critically ill patients” (priority 2015, dated 2023)
# Read-outs that look alike come from different tables or passages of the source.
# Key:
# [1] = Randomized placebo controlled trial of 24 hours i.v. Ilomedin in AMI PCI patients: hemodynamics and bleeding events; format: in vivo, human; conditions: 0.5 ng/kg/min i.v. for 24 hours, during or after infusion
# Protocol: (§1) Ilomedin® (iloprost, prostacyclin analog) infusion at a dose of 0.5 ng/kg/min compared to placebo in 17 patients with acute myocardial infarction (AMI) undergoing percutanuous coronary intervention (PCI) with stent implantation [Holmvang et al 2012]. Patients randomized to 24 hours active (n=9) or placebo (n=8) therapy were evaluated for hemodynamics, bleeding events and for functional whole blood hemostasis (Multiplate, TEG) and endothelial function in blood sampled before iloprost infusion (baseline), during infusion (1 h, 6 h and 24 h) and 24 hours after ceasing iloprost infusion (48 h). Bleeding was evaluated by GUSTO criteria (severe, moderate, mild, none) and hemostasis was evaluated by Multiplate and TEG according to the manufactures recommendations. Endothelial function was evaluated by measuring plasma levels of endothelial derived biomarkers by commercially available ELISA kits. Biomarkers indicating: Endothelial glycocalyx damage (syndecan-1), endothelial cell damage (thrombomodulin), endothelial cell activation (sE-selectin, ICAM-1) and anticoagulation (protein C) were investigated.
# [2] = test system: endothelial derived biomarkers; experiment: Healthy volunteer study, 2 hours i.v. Ilomedin infusion: plasma endothelial derived biomarkers by ELISA; format: in vivo, human; conditions: 1 ng/kg/min i.v. for 2 hours
# Protocol: Blood samples for endothelial function were collected at the following time-points: Before the infusion (0 h), after 30 min infusion (30 min), immediately after ceasing the infusion (2 h) and 2 hours after the end of iloprost infusion. Endothelial function was evaluated by measuring plasma levels of endothelial derived biomarkers by commercially available ELISA kits. Biomarkers indicating: Endothelial glycocalyx damage (syndecan-1), endothelial cell damage (thrombomodulin) and endothelial cell anticoagulation (protein C) were investigated. Furthermore, we measured plasma concentration of prostacyclin (FIG. 3).
# [3] = test system: functional whole blood hemostasis; experiment: Randomized placebo controlled trial of i.v. Ilomedin in Whipple surgery patients: TEG; format: in vivo, human
# Protocol: (§2) TEG was performed according to the manufactures recommendations. Endothelial function was evaluated by measuring plasma levels of endothelial derived biomarkers by commercially available ELISA kits. Biomarkers indicating: Endothelial glycocalyx damage (syndecan-1), endothelial cell damage (thrombomodulin) and necrosis (nucleosomes) were investigated.
# [4] = test system: endothelial derived biomarkers; experiment: Randomized placebo controlled trial of i.v. Ilomedin in Whipple surgery patients: plasma endothelial derived biomarkers by ELISA; format: in vivo, human; conditions: 1 ng/kg/min i.v.
# Protocol: as §2
# [5] = Whipple surgery patients
# Protocol: The inventors conducted a randomized placebo controlled double blind clinical trial investigating safety and efficacy of intra- and post-operative i.v. Ilomedin® (iloprost, prostacyclin analog) infusion at a dose of 1 ng/kg/min compared to placebo in 16 patients undergoing whipple surgery at Rigshospitalet, a tertiary level teaching University hospital in Copenhagen, Denmark. The inclusion criteria were adults (age […]) undergoing whipple surgery based on surgical indication due to cancer/dysplasia, familial adenomatous polyposis or inflammation/pancreatitis.
# Data on demography, co-morbidities, surgical time and 28-day mortality were assessed. Hemodynamics were measured continuously (heart rate (HR), systolic, diastolic and mean arterial pressure (SBT, DBT, MAP)) or at baseline, end of surgery and 6 h and 24 h post-operative (systemic vascular resistance (SVR), stroke volume (SV), central venous pressure (CVP)). The volume and number of units of red blood cells (RBC), plasma and platelet concentrates administered were recorded at the end of surgery, 6 h and 24 h post-operative. Bleeding volume was assessed intra-operative and 6 h and 24 h post-operative. The volume of crystalloids and colloids (only albumin was allowed) was, together with urine output, recorded intra-operative and 6 h and 24 h post-operative.
# Blood samples for evaluation of functional whole blood hemostasis (TEG) and endothelial function were collected pre-commencing infusion with study drug (baseline), at the end of surgery (post-op) and 6 h after surgery just before ceasing study drug infusion (6 h). Blood samples for routine biochemistry (hemoglobin, creatinine and lactate) were collected at baseline, post-op and 6 h and 24 h post-operative.
# [6] = test system: functional whole blood hemostasis; experiment: Randomized placebo controlled trial of 24 hours i.v. Ilomedin in AMI PCI patients: Multiplate, TEG; format: in vivo, human; conditions: 0.5 ng/kg/min i.v. for 24 hours, during or after infusion
# Protocol: The inventors conducted a randomized placebo controlled double blind clinical trial investigating safety and efficacy of 24 hours i.v. Ilomedin® (iloprost, prostacyclin analog) infusion at a dose of 0.5 ng/kg/min compared to placebo in 17 patients with acute myocardial infarction (AMI) undergoing percutanuous coronary intervention (PCI) with stent implantation [Holmvang et al 2012]. Patients randomized to 24 hours active (n=9) or placebo (n=8) therapy were evaluated for hemodynamics, bleeding events and for functional whole blood hemostasis (Multiplate, TEG) and endothelial function in blood sampled before iloprost infusion (baseline), during infusion (1 h, 6 h and 24 h) and 24 hours after ceasing iloprost infusion (48 h).
# [7] = test system: endothelial derived biomarkers; experiment: Randomized placebo controlled trial of 24 hours i.v. Ilomedin in AMI PCI patients: plasma endothelial derived biomarkers by ELISA; format: in vivo, human; conditions: 0.5 ng/kg/min i.v. for 24 hours, baseline to 48 h
# Protocol: as §1
# [8] = Retrospective study of critically ill ICU patients on CRRT with pre-filter Flolan or heparin; format: in vivo, human; conditions: for 90-day mortality / 365-day mortality / platelet count during CRRT: agent given in the dialysis filter; for 30-day mortality: agent given in the dialysis filter (Flolan 5 ng/kg/min)
# Protocol: The inventors conducted a retrospective study of critically ill patients treated or not treated with prostacyclin infusion during their intensive care unit (ICU) stay [Windelov et al 2010]. Ninety-four critically ill patients admitted to the ICU for medical or surgical complications, underwent hemofiltration (continuous renal replacement therapy, CRRT) with or without concomitant Flolan® (epoprostenol sodium, prostacyclin analog) treatment. Flolan® was administered at a low dose (5 ng/kg/min) in the filters to prevent these from clotting and consequently, there was only a minor spill-over of Flolan® to the systemic circulation.
# [9] = cited from earlier work
# [10] = test system: clot formation and platelet aggregation; experiment: Functional whole blood hemostatic assays (TEG, Multiplate) under low-dose prostacyclin infusion; format: in vivo, human
# Source text: However, as for the vasodilatory effect, the antiaggretory effect is highly dose-dependent [Moncada et al 1976; O'Grady et al 1980]. […] The term “thrombelastography” or “TEG” refers to a commercially available viscoelastic whole blood hemostasis assay employing citrated or non-anticoagulated blood. The TEG analyzer uses a small whole blood sample in a rotating cup and a pin suspended in the blood by a torsion wire, which is monitored for motion. To speed up the clot formation, a standardized amount of an activator of coagulation (e.g. kaolin, tissue factor) may be added to the cup just before the pin is placed in the cup. The TEG assay is suitable for determining important parameters in the clotting activity (clot initiation time, clot build up dynamics), clot strength (maximum amplitude (MA)) and clot degradation (fibrinolysis). The TEG system's approach to monitoring patient hemostasis is based on the premise that the end result of the hemostatic process is the clot. The clot's physical properties determine whether the patient will have normal hemostasis, or will be at increased risk for hemorrhage or thrombosis. The term “Multiplate” refers to a commercially available impedance aggregometry based whole blood platelet function analyzer employing anti-coagulated blood. The Multiplate analyzer uses a small whole blood sample in a chamber with two pairs of platinum electrodes. Standardized platelet agonists are added to the blood in the chamber to investigate specific platelet activation/signaling pathways. The Multiplate assay is based on the attachment of platelets on two platinum electrodes, resulting in an increase of electrical resistance between the electrodes.
# [11] = Healthy volunteer study, 2 hours i.v. Flolan infusion: hemodynamics; format: in vivo, human; conditions: eight healthy male volunteers; 4 ng/kg/min i.v. for 2 hours; any time point
# Protocol: The study was conducted investigating the influence of 2 hours i.v. Flolan® (epoprostenol sodium, prostacyclin analog) infusion at a dose of 4 ng/kg/min in eight healthy male volunteers.
# [12] = test system: endothelial derived biomarkers; experiment: Healthy volunteer study, 2 hours i.v. Flolan infusion: plasma endothelial derived biomarkers by ELISA; format: in vivo, human; conditions: healthy volunteers, 4 ng/kg/min i.v. for 2 hours
# Protocol: The study was conducted investigating the influence of 2 hours i.v. Flolan® (epoprostenol sodium, prostacyclin analog) infusion at a dose of 4 ng/kg/min in eight healthy male volunteers. Endothelial function was evaluated in the study e.g. by measuring plasma levels of endothelial derived biomarkers by commercially available ELISA kits. Biomarkers indicating: Endothelial glycocalyx damage (syndecan-1), endothelial cell damage (thrombomodulin) or necrosis (nucleosomes, HMGB1), endothelial cell activation (PAI-1) and endothelial cell anticoagulation (protein C, antithrombin) were investigated (FIG. 2).
# whole blood hemostasis = experiment: Healthy volunteer study, 2 hours i.v. Flolan infusion: Multiplate and TEG; format: in vivo, human; conditions: eight healthy male volunteers; 4 ng/kg/min i.v. for 2 hours
# Source text: The term “thrombelastography” or “TEG” refers to a commercially available viscoelastic whole blood hemostasis assay employing citrated or non-anticoagulated blood. The TEG analyzer uses a small whole blood sample in a rotating cup and a pin suspended in the blood by a torsion wire, which is monitored for motion. To speed up the clot formation, a standardized amount of an activator of coagulation (e.g. kaolin, tissue factor) may be added to the cup just before the pin is placed in the cup. The TEG assay is suitable for determining important parameters in the clotting activity (clot initiation time, clot build up dynamics), clot strength (maximum amplitude (MA)) and clot degradation (fibrinolysis). The TEG system's approach to monitoring patient hemostasis is based on the premise that the end result of the hemostatic process is the clot. The clot's physical properties determine whether the patient will have normal hemostasis, or will be at increased risk for hemorrhage or thrombosis. The term “Multiplate” refers to a commercially available impedance aggregometry based whole blood platelet function analyzer employing anti-coagulated blood. The Multiplate analyzer uses a small whole blood sample in a chamber with two pairs of platinum electrodes. Standardized platelet agonists are added to the blood in the chamber to investigate specific platelet activation/signaling pathways. […]
# [13] = healthy volunteers, during infusion
# [14] = healthy volunteers, 1-4 ng/kg/min infusion
compound,measurement,setting,value
CC#CCC(C)[C@H](O)/C=C/[C@@H]1[C@H]2C/C(=C/CCCC(=O)O)C[C@H]2C[C@H]1O (stereo partly drawn) [iloprost],bleeding events vs placebo,[1],no differences
same,hemodynamics vs placebo,[1],no differences
same,circulating level of thrombomodulin,"[2]; eight healthy male volunteers, continuing several hours after infusion",marked decrease
same,circulating level of Syndecan-1,[2]; [13],decreased
same,circulating level of protein C,[2]; [13],decreased
same,TEG maximum clot firmness intra-operatively,"[3]; Whipple surgery patients, 1 ng/kg/min i.v.",remained stable
same,"nucleosome level, change intra- and postoperatively vs placebo",[4],increased significantly more intra- and postoperatively in placebo patients compared to iloprost patients
same,syndecan-1 level vs placebo,[4],trend towards higher levels of syndecan-1 in placebo patients compared to iloprost patients
same,"thrombomodulin level, change intra- and postoperatively vs placebo",[4],increased significantly more intra- and postoperatively in placebo patients compared to iloprost patients
same,intra- and post-operative RBC received (median),[5]; 1 ng/kg/min i.v.,0 mL
same,lactate post-operatively,[5]; 1 ng/kg/min i.v.,remained unchanged
same,post-operative hemoglobin (median),[5]; 1 ng/kg/min i.v.,6.7 mmol/L
same,volume of RBC from arrival at the post-operative ward and 6 h post-operatively,[5]; 1 ng/kg/min i.v.,0 mL
same,28-day mortality vs placebo,[5]; 1 ng/kg/min i.v. intra- and post-operative,no differences
same,Multiplate or TEG vs placebo,[6],no differences
same,sE-selectin,[7],decreased significantly
heparin,90-day mortality,[8],53%
same,365-day mortality,[8],57%
same,platelet count during CRRT,[8],declined
same,30-day mortality,[8],39%
CCCCC[C@H](O)/C=C/[C@@H]1[C@H]2C/C(=C/CCCC(=O)O)O[C@H]2C[C@H]1O [prostacyclin],systolic blood pressure,"[9]; acute critically ill patients, doses from 5-10 ng/kg/min",lowers systolic blood pressure dose-dependently
same,blood pressure,[9]; [14],did not influence
same,diastolic blood pressure,"[9]; human volunteers, dose of 8 ng/kg/min",reduced
same,effect on systolic or diastolic blood pressure,"[9]; human volunteers, doses less than 8 ng/kg/min",no significant effect
same,effect on systolic blood pressure,"[9]; human volunteers, doses up to 16 ng/kg/min",no effect
same,hemodynamic effects,"[9]; low-dose infusion up to 4 ng/kg/min, healthy volunteers and acute critically ill patients",negligible
same,blood pressure,"[9]; patients with traumatic brain injury, AMI treated by PCI, septic shock or CABG surgery, 0.5-2 ng/kg/min infusion",did not negatively influence
same,clot formation,"[3]; patients undergoing major abdominal surgery, intra- and post-operative infusion",improved
same,clot formation and platelet aggregation,"[10]; acute critically ill patients (major abdominal surgery, PCI after AMI), 0.5-1 ng/kg/min infusion",neither influenced clot formation nor platelet aggregation
same,"hemostasis, bleeding or adverse events related to impaired hemostasis","[10]; acute critically ill patients, low-dose infusion 0.5-1 ng/kg/min",does not compromise hemostasis or induce bleeding or adverse events related to impaired hemostasis
same,platelet aggregation,"[10]; general conclusion, dose dependence",dose-dependently inhibits
same,"hemostasis, bleeding or adverse events related to impaired hemostasis","[10]; healthy volunteers and acute critically ill patients, low-dose infusion up to 4 ng/kg/min",does not compromise hemostasis or induce bleeding or adverse events related to impaired hemostasis
same,clot formation and platelet aggregation,[10]; [14],neither influenced clot formation nor platelet aggregation
same,"anti-thrombotic effects (TEG, Multiplate)",[10]; low-dose infusion,no measurable anti-thrombotic effects
same,90-day mortality,[8],34%
same,365-day mortality,[8],38%
same,platelet count during CRRT,[8],increased
same,30-day mortality,[8],21%
same,blood pressure vs baseline,[11],did not change
same,heart rate vs baseline,[11],did not change
same,circulating level of PAI-1,[12],declined
same,circulating level of antithrombin,[12],decreased
same,circulating level of thrombomodulin,[12]; continuing several hours after infusion,marked decrease
same,circulating level of protein C,[12]; hours after ceasing infusion,decreased
same,"Multiplate and TEG values, baseline vs later",whole blood hemostasis,no changes
